Among the data in US11873295B2, “Allosteric chromenone inhibitors of phosphoinositide 3-kinase (PI3K) for the treatment of disease” (Petra Pharma Corporation, priority 2021, dated 2024) are IC50 values, retold here.

The structures appear in SMILES notation.

For orientation: IC50 means the concentration needed to halve the response being measured. Higher therefore signals weaker potency in that assay.

The target in test [1] is T1, human full length PIK3KA Wild-type (p110α/p85α complex) (Homo sapiens, UniProt P42336).
T1 construct: Recombinant, catalytically active human full length PIK3KA Wild-type and H1047R mutant were purchased as 1:1 complex; 6xHis (N); purchased EMD Millipore Sigma 14-602M
Nature of the test: PI3K-alpha kinase (PIK3CA) biochemical activity, wild-type, ADP-Glo. To be noted: PI3K-α (PIK3CA) biochemical, Soy PI lipid substrate. Summed up: (§1)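 ADP formation, read by ADP-Glo, is run to about 10% ATP turnover at 27 °C with 20 μM ATP and 50 μM PIP2diC8 or soy PI. WT or H1047R p110α/p85α (1–5 nM) is pre-incubated 1 h with compound in HEPES pH 7.4/MgCl2/Triton buffer, 1% DMSO. 10-point 1:3 series, logistic IC50 versus no-enzyme and DMSO controls.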
For orientation: In ADP-Glo the light output rises with the ADP produced.

Test [2] concerns the target T2, human full length PIK3KA H1047R mutant (p110α/p85α complex) (Homo sapiens, UniProt P42336, H1047R).
T2 construct: Recombinant, catalytically active human full length PIK3KA Wild-type and H1047R mutant were purchased as 1:1 complex; 6xHis (N); purchased EMD Millipore Sigma 14-792M
Nature of the test: PI3K-alpha kinase (PIK3CA) biochemical activity, H1047R mutant, ADP-Glo. To be noted: PI3K-α (PIK3CA) biochemical, H1047R mutant, Soy PI lipid substrate. In a few lines: as §1

For test [3], the system named is PI3K-α (PIK3CA) in MDA-MB-453 cells. Nature of the test: PI3K-alpha kinase (PIK3CA) activity in vitro cell based assay, MDA-MB-453 cells, AlphaLisa SureFire. To be noted: 0% FBS, 3 hours treatment, relative IC50. Summed up: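 MDA-MB-453 cells in serum-free MEM with 1 μg/mL insulin treated 3 h with 10-point 1:3 compound dilutions, 0.3% DMSO. Lysates read by AlphaLisa SureFire; percent inhibition relative to DMSO (max) and 1 μM GDC-0032 (min), duplicate means fitted to 4-parameter logistic for relative IC50.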

T2 sequence (P42336 whole entry H1047R): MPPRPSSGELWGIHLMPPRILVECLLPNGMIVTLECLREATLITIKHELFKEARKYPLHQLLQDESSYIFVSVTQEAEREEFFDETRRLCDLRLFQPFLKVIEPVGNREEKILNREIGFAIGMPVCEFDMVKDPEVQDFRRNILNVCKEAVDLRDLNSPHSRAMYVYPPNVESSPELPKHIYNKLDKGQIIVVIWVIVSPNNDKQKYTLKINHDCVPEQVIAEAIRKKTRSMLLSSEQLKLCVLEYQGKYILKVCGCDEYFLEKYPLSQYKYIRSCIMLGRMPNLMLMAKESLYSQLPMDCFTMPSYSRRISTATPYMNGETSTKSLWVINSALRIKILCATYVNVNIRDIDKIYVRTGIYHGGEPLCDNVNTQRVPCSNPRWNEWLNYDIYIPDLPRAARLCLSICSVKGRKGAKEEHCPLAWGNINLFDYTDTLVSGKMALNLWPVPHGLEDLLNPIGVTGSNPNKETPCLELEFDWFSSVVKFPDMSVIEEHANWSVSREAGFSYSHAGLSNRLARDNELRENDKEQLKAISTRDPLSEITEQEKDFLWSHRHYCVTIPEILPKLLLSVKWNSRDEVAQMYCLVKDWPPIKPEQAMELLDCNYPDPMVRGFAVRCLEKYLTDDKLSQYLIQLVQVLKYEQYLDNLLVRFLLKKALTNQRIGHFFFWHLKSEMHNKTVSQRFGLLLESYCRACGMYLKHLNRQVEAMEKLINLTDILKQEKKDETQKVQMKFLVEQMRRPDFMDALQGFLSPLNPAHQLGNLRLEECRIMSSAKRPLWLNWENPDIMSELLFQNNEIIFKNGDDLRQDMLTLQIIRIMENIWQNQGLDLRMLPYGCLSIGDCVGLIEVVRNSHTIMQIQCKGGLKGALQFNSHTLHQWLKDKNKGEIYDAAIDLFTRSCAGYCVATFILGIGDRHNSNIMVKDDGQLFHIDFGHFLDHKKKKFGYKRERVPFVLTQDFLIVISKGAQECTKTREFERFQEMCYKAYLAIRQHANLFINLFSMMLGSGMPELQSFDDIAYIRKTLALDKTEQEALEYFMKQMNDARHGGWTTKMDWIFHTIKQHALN
T2 sequence (P27986 whole entry partner): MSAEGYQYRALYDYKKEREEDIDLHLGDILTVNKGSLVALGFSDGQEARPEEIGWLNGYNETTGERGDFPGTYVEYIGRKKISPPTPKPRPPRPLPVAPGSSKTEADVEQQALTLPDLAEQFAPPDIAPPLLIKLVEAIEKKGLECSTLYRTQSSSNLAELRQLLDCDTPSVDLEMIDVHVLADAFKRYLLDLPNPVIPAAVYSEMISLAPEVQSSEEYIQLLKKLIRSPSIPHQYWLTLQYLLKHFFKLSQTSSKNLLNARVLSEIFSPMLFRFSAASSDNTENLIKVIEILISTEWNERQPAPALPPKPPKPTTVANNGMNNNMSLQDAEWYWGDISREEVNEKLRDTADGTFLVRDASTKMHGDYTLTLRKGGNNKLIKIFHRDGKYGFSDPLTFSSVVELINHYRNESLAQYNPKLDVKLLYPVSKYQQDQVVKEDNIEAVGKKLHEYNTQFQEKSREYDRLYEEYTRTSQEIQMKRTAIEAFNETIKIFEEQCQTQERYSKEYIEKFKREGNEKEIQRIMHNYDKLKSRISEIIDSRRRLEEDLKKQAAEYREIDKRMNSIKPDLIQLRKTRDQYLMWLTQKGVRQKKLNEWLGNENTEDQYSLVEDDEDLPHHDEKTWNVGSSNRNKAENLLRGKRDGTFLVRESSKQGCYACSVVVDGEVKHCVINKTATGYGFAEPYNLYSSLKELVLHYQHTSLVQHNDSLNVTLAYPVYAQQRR

With `Cc1cc(C(C)Nc2ccccc2C(=O)O)c2oc(-c3ccccc3)c(F)c(=O)c2c1` (single isomer, unassigned; isomer 1) [Example 132, 2-[1-(3-Fluoro-6-methyl-4-oxo-2-phenyl-chromen-8-yl)ethylamino]benzoic acid, Isomer 1], the half-inhibitory concentration (IC50) in test [1] is 1 to 5 µM; in test [2], less than 0.5 µM; in test [3] (Homo sapiens, MDA-MB-453, 3 h) it was less than 0.05 µM.

Regarding `Cc1cc([C@@H](C)Nc2ccc(Cl)cc2C(=O)O)c2oc(-c3cccc(C#N)c3)c(C)c(=O)c2c1` [Example 144, 5-Chloro-2-[[(1R)-1-[2-(3-cyanophenyl)-3,6-dimethyl-4-oxo-chromen-8-yl]ethyl]amino]benzoic acid], the IC50 in test [1] is 0.5 to 1 µM; in test [2], less than 0.5 µM; in test [3] (Homo sapiens, MDA-MB-453, 3 h) it was less than 0.05 µM.

Take `Cc1cc([C@@H](C)Nc2ccc(C(F)(F)F)nc2C(=O)O)c2oc(-c3ccc(F)c(F)c3)c(C)c(=O)c2c1` [Example 123, 3-[[(1R)-1-[2-(3,4-Difluorophenyl)-3,6-dimethyl-4-oxo-chromen-8-yl]ethyl]amino]-6-(trifluoromethyl)pyridine-2-carboxylic acid]: the half-inhibitory concentration (IC50) in test [1] is 1 to 5 µM; in test [2] it was less than 0.5 µM; in test [3] (Homo sapiens, MDA-MB-453, 3 h), less than 0.05 µM.

As for `COc1ccc(NC(C)c2cc(C)cc3c(=O)c(C)c(-c4ccccc4)oc23)c(C(=O)O)n1` (single isomer, unassigned; isomer 1) [Example 109, 3-[1-(3,6-Dimethyl-4-oxo-2-phenyl-chromen-8-yl)ethylamino]-6-methoxy-pyridine-2-carboxylic acid, Isomer 1], the results for the IC50 in test [1], in test [2] and in test [3] were 0.5 to 1 µM, less than 0.5 µM and less than 0.05 µM, respectively.

Turning to `Cc1c(-c2ccccc2)oc2c([C@@H](C)Nc3ccccc3C(=O)O)cc(C(F)(F)F)cc2c1=O` [Example 102, 2-[[(1R)-1-[3-Methyl-4-oxo-2-phenyl-6-(trifluoromethyl)-chromen-8-yl]ethyl]amino]benzoic acid], the IC50 was 1 to 5 µM in test [1]; less than 0.5 µM in test [2]; less than 0.05 µM in test [3] (Homo sapiens, MDA-MB-453, 3 h).

For `Cc1cc([C@@H](C)Nc2ccccc2C(=O)O)c2oc(-c3ccccc3)c(C)c(=O)c2c1` [Example 21, 2-[[(1R)-1-(3,6-Dimethyl-4-oxo-2-phenyl-chromen-8-yl)ethyl]amino]benzoic acid], the IC50 in test [1] was 1 to 5 µM; in test [2], less than 0.5 µM; in test [3] (Homo sapiens, MDA-MB-453, 3 h), less than 0.05 µM.

On to `Cc1cc([C@@H](C)Nc2cccnc2C(=O)O)c2oc(-c3cccc(F)c3)c(C)c(=O)c2c1` [Example 136, 3-[[(1R)-1-[2-(3-Fluorophenyl)-3,6-dimethyl-4-oxo-chromen-8-yl]ethyl]amino]pyridine-2-carboxylic acid], for which the 50% inhibitory concentration (IC50) in test [1] lay within 5 to 10 µM; in test [2], 0.5 to 1 µM; in test [3] (Homo sapiens, MDA-MB-453, 3 h), 0.05 to 0.1 µM.

With `CNC(=O)c1cccc(-c2oc3c([C@@H](C)Nc4ccccc4C(=O)O)cc(C)cc3c(=O)c2C)c1` [Example 152, 2-[[(1R)-1-[3,6-Dimethyl-2-[3-(methylcarbamoyl)phenyl]-4-oxo-chromen-8-yl]ethyl]amino]benzoic acid], the IC50 in test [1] was more than 10 µM; in test [2], less than 0.5 µM; in test [3] (Homo sapiens, MDA-MB-453, 3 h), less than 0.05 µM.

Turning to `Cc1cc([C@@H](C)Nc2ccc(Cl)nc2C(=O)O)c2oc(-c3ccccc3)c(C)c(=O)c2c1` [Example 1, 6-Chloro-3-[[(1R)-1-(3,6-dimethyl-4-oxo-2-phenyl-chromen-8-yl)ethyl]amino]pyridine-2-carboxylic acid], the 50% inhibitory concentration (IC50) was 0.5 to 1 µM in test [1]; less than 0.5 µM in test [2]; less than 0.05 µM in test [3] (Homo sapiens, MDA-MB-453, 3 h).

`Cc1cc([C@@H](C)Nc2ccc(F)cc2C(=O)O)c2oc(-c3ccccc3)c(C)c(=O)c2c1` [Example 58, 2-[[(1R)-1-(3,6-Dimethyl-4-oxo-2-phenyl-chromen-8-yl)ethyl]amino]-5-fluoro-benzoic acid]: the half-inhibitory concentration (IC50) in test [1] is less than 0.5 µM; in test [2], less than 0.5 µM; in test [3] (Homo sapiens, MDA-MB-453, 3 h), less than 0.05 µM.

Regarding `Cc1cc(C(C)Nc2ccccc2C(=O)O)c2oc(-c3ccccc3)c(C#N)c(=O)c2c1` (single isomer, unassigned; isomer 2) [Example 62, 2-[1-(3-Cyano-6-methyl-4-oxo-2-phenyl-chromen-8-yl)ethylamino]benzoic acid, Isomer 2], the IC50 in test [1] was less than 0.5 µM; in test [2] it was less than 0.5 µM; in test [3] (Homo sapiens, MDA-MB-453, 3 h), less than 0.05 µM.

`Cc1cc([C@@H](C)Nc2ccc(Cl)nc2C(=O)O)c2oc(-c3cccc(C#N)c3)c(C)c(=O)c2c1` [Example 121, 6-Chloro-3-[[(1R)-1-[2-(3-cyanophenyl)-3,6-dimethyl-4-oxo-chromen-8-yl]ethyl]amino]pyridine-2-carboxylic acid]: the half-inhibitory concentration (IC50) was 0.5 to 1 µM in test [1], less than 0.5 µM in test [2] and less than 0.05 µM in test [3].

On to `Cc1cc([C@@H](C)Nc2ccc(F)c(F)c2C(=O)O)c2oc(-c3ccccc3)c(C)c(=O)c2c1` [Example 38, 6-[[(1R)-1-(3,6-Dimethyl-4-oxo-2-phenyl-chromen-8-yl)ethyl]amino]-2,3-difluoro-benzoic acid], for which the IC50 is less than 0.5 µM in test [1]; less than 0.5 µM in test [2]; less than 0.05 µM in test [3] (Homo sapiens, MDA-MB-453, 3 h).

Regarding `Cc1cc([C@@H](C)Nc2cccc(Cl)c2C(=O)O)c2oc(-c3ccccc3)c(C)c(=O)c2c1` [Example 76, 2-Chloro-6-[[(1R)-1-(3,6-dimethyl-4-oxo-2-phenyl-chromen-8-yl)ethyl]amino]benzoic acid], the IC50 in test [1] is 5 to 10 µM; in test [2] it was less than 0.5 µM; in test [3] (Homo sapiens, MDA-MB-453, 3 h), less than 0.05 µM.

For `Cc1cc([C@@H](C)Nc2ccc(C#N)cc2C(=O)O)c2oc(-c3ccccc3)c(C)c(=O)c2c1` (single isomer, unassigned; isomer 1) [Example 157], the concentration for half-maximal inhibition (IC50) in test [1] is 5 to 10 µM; in test [2] it was 5 to 10 µM; in test [3], more than 0.5 µM.

Turning to `Cc1cc([C@@H](C)Nc2ccc(C)nc2C(=O)O)c2oc(-c3cccc(F)c3)c(C)c(=O)c2c1` [Example 134, 3-[[(1R)-1-[2-(3-Fluorophenyl)-3,6-dimethyl-4-oxo-chromen-8-yl]ethyl]amino]-6-methyl-pyridine-2-carboxylic acid], the IC50 was 5 to 10 µM in test [1]; less than 0.5 µM in test [2]; less than 0.05 µM in test [3] (Homo sapiens, MDA-MB-453, 3 h).

For the molecule `Cc1cc([C@@H](C)Nc2ccccc2C(=O)O)c2oc(-c3ccc(-c4cn[nH]c4)cc3)cc(=O)c2c1` [Example 163, 2-[[(1R)-1-[6-Methyl-4-oxo-2-[4-(1H-pyrazol-4-yl)phenyl]chromen-8-yl]ethyl]amino]benzoic acid], the IC50 in test [1] lay in the range of 1 to 5 µM; in test [2], 0.5 to 1 µM; in test [3] (Homo sapiens, MDA-MB-453, 3 h) it was 0.05 to 0.1 µM.

As to `Cc1cc([C@@H](C)Nc2ccc(F)cc2C(=O)O)c2oc(-c3cccc(C#N)c3)c(C)c(=O)c2c1` [Example 129, 2-[[(1R)-1-[2-(3-Cyanophenyl)-3,6-dimethyl-4-oxo-chromen-8-yl]ethyl]amino]-5-fluoro-benzoic acid], the IC50 in test [1] is less than 0.5 µM; in test [2], less than 0.5 µM; in test [3] (Homo sapiens, MDA-MB-453, 3 h) it was less than 0.05 µM.

Regarding `Cc1cc([C@@H](C)Nc2ccccc2C(=O)O)c2oc(-c3cccc(-c4cc[nH]n4)c3)c(C)c(=O)c2c1` [Example 166, 2-[[(1R)-1-[3,6-Dimethyl-4-oxo-2-[3-(1H-pyrazol-3-yl)phenyl]chromen-8-yl]ethyl]amino]benzoic acid], the IC50 is 1 to 5 µM in test [1]; 0.5 to 1 µM in test [2]; less than 0.05 µM in test [3] (Homo sapiens, MDA-MB-453, 3 h).

Take `Cc1cc([C@@H](C)Nc2cnccc2C(=O)O)c2oc(-c3ccccc3)c(C)c(=O)c2c1` [Example 138, 3-[[(1R)-1-(3,6-Dimethyl-4-oxo-2-phenyl-chromen-8-yl)ethyl]amino]pyridine-4-carboxylic acid]: the half-maximal inhibitory concentration (IC50) in test [1] is more than 10 µM; in test [2], less than 0.5 µM; in test [3] (Homo sapiens, MDA-MB-453, 3 h) it was 0.1 to 0.5 µM.

As for `Cc1cc([C@@H](C)Nc2cccc(F)c2C(=O)O)c2oc(-c3ccc(F)cc3F)c(C)c(=O)c2c1` [Example 130, 2-[[(1R)-1-[2-(2,4-Difluorophenyl)-3,6-dimethyl-4-oxo-chromen-8-yl]ethyl]amino]-6-fluoro-benzoic acid 2,2,2-trifluoroacetic acid], the concentration for half-maximal inhibition (IC50) in test [1] is 1 to 5 µM; in test [2], less than 0.5 µM; in test [3] (Homo sapiens, MDA-MB-453, 3 h) it was less than 0.05 µM.

For `Cc1cc(C(C)Nc2ccccc2C(=O)O)c2oc(-c3ccccc3)c(F)c(=O)c2c1` (single isomer, unassigned; isomer 2) [Example 133, 2-[1-(3-Fluoro-6-methyl-4-oxo-2-phenyl-chromen-8-yl)ethylamino]benzoic acid, Isomer 2], the IC50 is 1 to 5 µM in test [1], less than 0.5 µM in test [2] and 0.05 to 0.1 µM in test [3].

As for `COc1ccc(-c2cc(=O)c3cc(C)cc([C@@H](C)Nc4ccccc4C(=O)O)c3o2)cc1` [Example 66, 2-[[(1R)-1-[2-(4-Methoxyphenyl)-6-methyl-4-oxo-chromen-8-yl]ethyl]amino]benzoic acid 2,2,2-trifluoroacetic acid], the concentration for half-maximal inhibition (IC50) was 1 to 5 µM in test [1]; less than 0.5 µM in test [2]; less than 0.05 µM in test [3] (Homo sapiens, MDA-MB-453, 3 h).
